Test results taken from patent publication US4076814A, “Preventive and curative compositions against mycoplasmosis” (Sankyo Company Limited, priority 1975, dated 1978).
Converted amounts (≈) assume the structure as drawn. Structures can show the parent of a compound that is named as a salt.

How the values were obtained:
Format in all cases: cell-based
[1] = system: Mycoplasma gallisepticum; assay: Antimicrobial test, conventional agar plate dilution method, Mycoplasma gallisepticum; conditions: for MIC: Mycoplasmoides gallisepticum, read-out: Minimum Inhibitory Concentration, Mycoplasma gallisepticum
Excerpt: (§1) ANTIMICROBIAL TEST AGAINST THREE STRAINS OF MYCOPLASMA
(§2) The test was effected by a conventional agar plate dilution method using the indicated strains of mycoplasma. The dithiocarbamic acid derivatives as shown below with Compound Nos. were employed in the test.

[2] = system: Mycoplasma pulmonis; assay: Antimicrobial test, conventional agar plate dilution method, Mycoplasma pulmonis; conditions: for MIC: Mycoplasma, read-out: Minimum Inhibitory Concentration, Mycoplasma pulmonis
Excerpt: as §1, §2

[3] = system: Mycoplasma hyorhinis; assay: Antimicrobial test, conventional agar plate dilution method, Mycoplasma hyorhinis; conditions: for MIC: Mycoplasma, read-out: Minimum Inhibitory Concentration, Mycoplasma hyorhinis
Excerpt: as §1, §2

SMILES	MIC [1] [mg/L]	MIC [2] [mg/L]	MIC [3] [mg/L]	Minimum Inhibitory Concentration, Mycoplasma gallisepticum ([1]; hydrochloride) [µg/mL]	Minimum Inhibitory Concentration, Mycoplasma pulmonis ([2]; hydrochloride) [µg/mL]	Minimum Inhibitory Concentration, Mycoplasma hyorhinis ([3]; hydrochloride) [µg/mL]
Cc1cc(CSC(=S)N2CCCC2C(=O)OCc2ccccc2)cc(C)c1O (stereo not drawn) [compound 191, 4-Hydroxy-3,5-dimethylbenzyl 2-benzyloxycarbonyl-1-pyrrolidinecarbodithioate]	1.56 (≈ 3.75 µM)	1.56 (≈ 3.75 µM)	3.13 (≈ 7.53 µM)			
Cc1cc2c(c(O)c1CSC(=S)N1CCN(C)CC1)C1OCC34CCCC(C)(C)C3CCC(C)(O2)C14 (stereo not drawn) [compound 272, 16-(4-Methyl-1-piperazinethiocarbonylthiomethyl)-siccanin]	0.39 (≈ 0.735 µM)	0.39 (≈ 0.735 µM)	0.39 (≈ 0.735 µM)			
CC(=O)C(C)CSC(=S)N1CCCCC1 (stereo not drawn) [compound 149, 2-Acetylpropyl 1-piperidinecarbodithioate]	0.2 (≈ 0.815 µM)	0.2 (≈ 0.815 µM)	0.05 (≈ 0.204 µM)			
CC(C)(C)c1cc(CSC(=S)N2CCCCC2)cc(C(C)(C)C)c1O [compound 218, 4-Hydroxy-3,5-di-t-butylbenzyl 1-piperidinecarbodithioate]	0.78 (≈ 2.05 µM)	0.39 (≈ 1.03 µM)	0.39 (≈ 1.03 µM)			
CC(=O)CCSC(=S)N1CCN(C)CC1.Cl [compound 93, 2-Acetylethyl 4-methyl-1-piperazinecarbodithioate hydrochloride]	0.1	0.1	0.05			
CCCCN(C)C(=S)SCCC(C)=O [compound 80, 2-Acethylethyl butylmethyldithiocarbamate]	0.1 (≈ 0.428 µM)	0.1 (≈ 0.428 µM)	0.1 (≈ 0.428 µM)			
CCN(CC)C(=S)SCCC(=O)CCc1ccccc1O [compound 125, 2-(o-Hydroxyhydrocinnamoyl)ethyl diethyldithiocarbamate]	0.2 (≈ 0.614 µM)	0.2 (≈ 0.614 µM)	0.2 (≈ 0.614 µM)			
CCN(CC)C(=S)SCc1cc(C(C)(C)C)c(O)c(C(C)(C)C)c1 [compound 212, 4-Hydroxy-3,5-di-t-butylbenzyl diethyldithiocarbamate]	1.56 (≈ 4.24 µM)	1.56 (≈ 4.24 µM)	1.56 (≈ 4.24 µM)			
CCC(C)c1cc(CSC(=S)N(C)C)cc(CSC(=S)N(C)C)c1O (stereo not drawn) [compound 250, 4-Hydroxy-5-dimethylthiocarbamoylthiomethyl-3-sec-butylbenzyl dimethyldithiocarbamate]	0.2 (≈ 0.48 µM)	0.2 (≈ 0.48 µM)	0.2 (≈ 0.48 µM)			
CCN(CC)C(=S)SCc1cc(CN(C)C)c(O)c(C(C)(C)C)c1 [compound 241, 4-Hydroxy-3-dimethylaminomethyl-5-t-butylbenzyl diethyldithiocarbamate]	0.78 (≈ 2.12 µM)	0.39 (≈ 1.06 µM)	0.39 (≈ 1.06 µM)			
CC(=O)CCSC(=S)N(C)Cc1ccccc1 [compound 82, 2-Acetylethyl benzylmethyldithiocarbamate]	0.2 (≈ 0.748 µM)	0.2 (≈ 0.748 µM)	0.2 (≈ 0.748 µM)			
CCC(=O)CCSC(=S)N(CC)CC [compound 99, 2-Propionylethyl diethyldithiocarbamate]	0.05 (≈ 0.214 µM)	0.05 (≈ 0.214 µM)	0.05 (≈ 0.214 µM)			
CC=Cc1cc(CSC(=S)N(CC)CC)c(O)c(OC)c1 [compound 246, 2-Hydroxy-3-methoxy-5-propenylbenzyl diethyldithiocarbamate]	0.39 (≈ 1.2 µM)	0.2 (≈ 0.614 µM)	0.39 (≈ 1.2 µM)			
CCN(CC)C(=S)SCC(C)C(C)=O (stereo not drawn) [compound 148, 2-Acetylpropyl diethyldithiocarbamate]	0.05 (≈ 0.214 µM)	0.05 (≈ 0.214 µM)	0.05 (≈ 0.214 µM)			
CCCCCCCCCCC(CSC(=S)N(C)C)C(C)=O (stereo not drawn) [compound 152, 2-Acetyldodecyl dimethyldithiocarbamate]	0.1 (≈ 0.302 µM)	0.1 (≈ 0.302 µM)	0.39 (≈ 1.18 µM)			
CN(C)C(=S)SCC1CCCCC1=O (stereo not drawn) [compound 5, 2-Oxocyclohexylmethyl dimethyldithiocarbamate]	0.05 (≈ 0.216 µM)	0.1 (≈ 0.432 µM)	0.05 (≈ 0.216 µM)			
Cc1cc(C)c(O)c(CSC(=S)N(C)C)c1 [compound 197, 2-Hydroxy-3,5-dimethylbenzyl dimethyldithiocarbamate]	0.39 (≈ 1.53 µM)	0.39 (≈ 1.53 µM)	0.2 (≈ 0.783 µM)			
CN(C)C(=S)SCc1cc(CSC(=S)N(C)C)c(O)c(C(C)(C)C)c1 [compound 251, 2-Hydroxy-5-dimethylthiocarbamoylthiomethyl-3-t-butylbenzyl dimethyldithiocarbamate]	0.2 (≈ 0.48 µM)	0.1 (≈ 0.24 µM)	0.2 (≈ 0.48 µM)			
O=c1cc(CO)oc(CSC(=S)N2CCCCC2)c1O [compound 261, 5-Hydroxy-2-hydroxymethyl-4-oxo-4H-pyran-6-ylmethyl-1-piperidinecarbodithioate]	3.13 (≈ 9.92 µM)	3.13 (≈ 9.92 µM)	3.13 (≈ 9.92 µM)			
Cc1cc(CSC(=S)N(C)C)cc(CN(C)C)c1O [compound 236, 4-Hydroxy-3-dimethylaminomethyl-5-methylbenzyl dimethyldithiocarbamate]	0.2 (≈ 0.67 µM)	0.2 (≈ 0.67 µM)	0.2 (≈ 0.67 µM)			
CC(=O)CCSC(=S)N(C)C [compound 78, 2-Acetylethyl dimethyldithiocarbamate]	0.05 (≈ 0.261 µM)	0.05 (≈ 0.261 µM)	0.025 (≈ 0.131 µM)			

SMILES	MIC [1] [mg/L]	MIC [2] [mg/L]	MIC [3] [mg/L]	Minimum Inhibitory Concentration, Mycoplasma gallisepticum ([1]; hydrochloride) [µg/mL]	Minimum Inhibitory Concentration, Mycoplasma pulmonis ([2]; hydrochloride) [µg/mL]	Minimum Inhibitory Concentration, Mycoplasma hyorhinis ([3]; hydrochloride) [µg/mL]
CCN(CC)C(=S)SCc1c(C)cc2c(c1O)C1OCC34CCCC(C)(C)C3CCC(C)(O2)C14 (stereo not drawn) [compound 266, 16-Diethylthiocarbamoylthiomethylsiccanin]	0.1 (≈ 0.199 µM)	0.1 (≈ 0.199 µM)	0.1 (≈ 0.199 µM)			
CCCc1cc(CSC(=S)N(C)C)cc(CSC(=S)N(C)C)c1O [compound 248, 4-Hydroxy-5-dimethylthiocarbamoylthiomethyl-3-n-propylbenzyl dimethyldithiocarbamate]	0.1 (≈ 0.248 µM)	0.1 (≈ 0.248 µM)	0.2 (≈ 0.497 µM)			
CN(C)C(=S)SCCC(=O)c1cccnc1 [compound 69]	0.1 (≈ 0.393 µM)	0.1 (≈ 0.393 µM)	0.1 (≈ 0.393 µM)			
CCC(C)c1cc(CSC(=S)N(C)C)cc(CN(C)C)c1O.Cl (stereo not drawn) [compound 240, 4-Hydroxy-3-dimethylaminomethyl-5-sec-butylbenzyl dimethyldithiocarbamate hydrochloride]	0.39	0.39	0.2			
CCN(CC)C(=S)SCC1CCCCC1=O (stereo not drawn) [compound 6, 2-Oxocyclohexylmethyl diethyldithiocarbamate]	0.1 (≈ 0.385 µM)	0.1 (≈ 0.385 µM)	0.05 (≈ 0.193 µM)			
Cc1cc(CSC(=S)N2CCN(C)CC2)cc(C)c1O.Cl [compound 196, 4-Hydroxy-3,5-dimethylbenzyl 4-methyl-1-piperazinecarbodithioate hydrochloride]	1.56	1.56	0.39			
CCN(CC)C(=S)SCCC(=O)CCc1ccc(OC)cc1 [compound 129, 2-(p-Methoxyhydrocinnamoyl)ethyl diethyldithiocarbamate]	0.2 (≈ 0.589 µM)	0.2 (≈ 0.589 µM)	0.2 (≈ 0.589 µM)			
Oc1c(Cl)cc(CSC(=S)N2CCOCC2)cc1Cl [compound 235, 4-Hydroxy-3,5-dichlorobenzyl 4-morpholinecarbodithioate]	1.56 (≈ 4.61 µM)	1.56 (≈ 4.61 µM)	1.56 (≈ 4.61 µM)			
CC(C)(C)c1cc(CSC(=S)N2CCCCCC2)cc(C(C)(C)C)c1O [compound 220, 4-Hydroxy-3,5-di-t-butylbenzyl 1-hexamethyleneiminecarbodithioate]	0.78 (≈ 1.98 µM)	0.78 (≈ 1.98 µM)	0.78 (≈ 1.98 µM)			
Cc1cc2c(c(O)c1CSC(=S)N(C)C)C1OCC34CCCC(C)(C)C3CCC(C)(O2)C14 (stereo not drawn) [compound 265, 16-Dimethylthiocarbamoylthiomethylsiccanin]	0.39 (≈ 0.82 µM)	0.39 (≈ 0.82 µM)	0.39 (≈ 0.82 µM)			
CN(C)C(=S)SCCC(=O)c1ccccc1 [compound 23, 2-Benzoylethyl dimethyldithiocarbamate]	0.05 (≈ 0.197 µM)	0.025 (≈ 0.0987 µM)	0.05 (≈ 0.197 µM)			
CCCc1cc(CSC(=S)N(C)C)cc(CN(C)C)c1O.Cl [compound 238, 4-Hydroxy-3-dimethylaminomethyl5-n-propylbenzyl dimethyldithiocarbamate hydrochloride]	0.2	0.2	0.2			
CN(C)C(=S)SCc1cc(Cl)c(O)c(Cl)c1 [compound 232, 4-Hydroxy-3,5-dichlorobenzyl dimethyldithiocarbamate]	0.39 (≈ 1.32 µM)	0.39 (≈ 1.32 µM)	0.2 (≈ 0.675 µM)			
Cc1cc2c(c(O)c1CSC(=S)N1CCOCC1)C1OCC34CCCC(C)(C)C3CCC(C)(O2)C14 (stereo not drawn) [compound 271, 16-(4-Morpholinethiocarbonylthiomethyl)siccanin]	1.56 (≈ 3.01 µM)	1.56 (≈ 3.01 µM)	1.56 (≈ 3.01 µM)			
CC(=O)C(C)CSC(=S)N(C)C (stereo not drawn) [Compound No. 147, 2-Acetylpropyl dimethyldithiocarbamate]	0.05 (≈ 0.243 µM)	0.05 (≈ 0.243 µM)	0.05 (≈ 0.243 µM)			
CC(C)c1cc(CSC(=S)N2CCOCC2)cc(C(C)C)c1O [compound 210, 4-Hydroxy-3,5-di-isopropylbenzyl 4-morpholinecarbodithioate]	0.39 (≈ 1.1 µM)	0.39 (≈ 1.1 µM)	0.39 (≈ 1.1 µM)			
Cc1cc(O)c(CSC(=S)N(C)C)cc1CSC(=S)N(C)C [compound 247, 4-Hydroxy-5-dimethylthiocarbamoylthiomethyl-2-methylbenzyl dimethyldithiocarbamate]	0.78 (≈ 2.08 µM)	0.78 (≈ 2.08 µM)	0.39 (≈ 1.04 µM)			
CCN(CC)C(=S)SCc1cc(C)c(O)cc1C(C)C [Compound No. 202, 4-Hydroxy-2-isopropyl-5-methylbenzyl diethyldithyldithiocarbamate]	0.1 (≈ 0.321 µM)	0.1 (≈ 0.321 µM)	0.1 (≈ 0.321 µM)			
CCN(CC)C(=S)SCCC(=O)C=Cc1ccc(C)cc1 [compound 142, 2-(p-Methylcinnamoyl)ethyl diethyldithiocarbamate]	0.2 (≈ 0.622 µM)	0.2 (≈ 0.622 µM)	0.2 (≈ 0.622 µM)			
Cc1cc2c(c(O)c1CSC(=S)N1CCN(C)CC1)C1OCC34CCCC(C)(C)C3CCC(C)(O2)C14 (stereo not drawn) [compound 273, 16-(4-Methyl-1-piperazinethiocarbonylthiomethyl)siccanin hydrochloride]				0.78	0.78	0.78
